System: patients with prior myocardial infarction (CARE study)
Test: CARE: association of SNPs with pravastatin treatment in cardiovascular events prevention (logistic regression, odds ratio pravastatin vs placebo by genotype; Table 8)
Type: in vivo, human
Details: for Prava vs. Placebo Odds Ratio, 1 Rare Alleles / Prava vs. Placebo Odds Ratio, 2 Rare Alleles / Non-fatal MI (def & prob), n/total (%) / Fatal/Non-fatal MI (def & prob), n/total (%) / Fatal CHD/Definite Non-fatal MI, n/total (%) / Total Coronary Heart Disease Events, n/total (%) / Fatal/Non-fatal Atherosclerotic CV Disease, n/total (%) / Hosp. for Cardiovascular Disease, n/total (%) / Total Cardiovascular Disease Events, n/total (%) / Prava vs. Placebo Odds Ratio, 0 Rare Alleles: All Patients; for Non-fatal MI (def & prob), n/total (%) / Fatal/Non-fatal MI (def & prob), n/total (%) / Fatal CHD/Definite Non-fatal MI, n/total (%) / Total Coronary Heart Disease Events, n/total (%) / Fatal/Non-fatal Atherosclerotic CV Disease, n/total (%) / Hosp. for Cardiovascular Disease, n/total (%) / Total Cardiovascular Disease Events, n/total (%): Prava
From the text: In order to identify genetic markers associated with acute coronary events (e.g. MI, stroke, unstable angina, congestive heart failure, etc.) or response to statin treatment for the prevention of coronary events, samples from the Cholesterol and Recurrent Events (CARE) study (a randomized multicentral double-blinded trial on secondary prevention of acute coronary events with pravastatin) (Sacks et al., 1991, Am. J. Cardiol. 68: 1436-1446) were genotyped. A well-documented myocardial infarction (MI) was one of the enrollment criteria for entry into the CARE study. Patients were enrolled in the CARE trial from 80 participating study centers. […] Patients were randomized to receive either 40 mg of pravastatin once daily or a matching placebo. The primary endpoint of the trial was death from coronary heart disease and the median duration of follow-up was 5.0 years (range, 4.0 to 6.2 years). […] Secondary endpoints of other related cardiovascular or metabolic disease events, and changes in clinical variables were also recorded in pravastatin-treated and placebo groups. All individuals included in the study had signed a written informed consent form and the study protocol was approved by the respective Institutional Review Boards (IRBs).
For genotyping SNPs in CARE patient samples, DNA was extracted from blood samples using conventional DNA extraction methods such as the QIA-amp kit from Qiagen. Genotypes were obtained on an ABI PRISM® 7900HT Sequence Detection PCR system (Applied Biosystems, Foster City, Calif.) by kinetic allele-specific PCR, similar to the method described by Germer et al. (Germer S., Holland M. J., Higuchi R. 2000, Genome Res. 10: 258-266).
Statistical analysis for association of SNPs with pravastatin treatment in cardiovascular events prevention (Table 8) was carried out using an overall logistic regression model that included an intercept, a parameter for the effect of a genotype containing two rare alleles versus a genotype containing no rare alleles, a parameter for the effect of a genotype containing one rare allele versus a genotype containing no rare alleles, a parameter for the effect of use of pravastatin versus the use of placebo, and parameters for the interaction effects between SNP genotypes and pravastatin use. The test of the overall model is a chi-square test with two degrees of freedom for analyses containing all three genotypes, and one degree of freedom for analyses containing two genotypes.
Effect sizes were estimated through odds ratios (pravastatin group versus placebo) for carriers of each genotype (groups of 0, 1, and 2 minor allele carriers). The effect was considered to be significant if p-value for testing whether any of the interactions between SNP genotypes and pravastatin use were <0.05. […] Odds ratios less than one indicate that the specific SNP allele has a protective effect and odds ratios greater than one indicate that the specific SNP allele has an adverse effect.

[1] = IL1A hCV9546471, Total Mortality
[2] = IL1RN hCV8737990, 2 Rare Alleles, n/total 20/121
[3] = IL1RN hCV8737990, Fatal CHD/Definite Non-fatal MI
[4] = IL1RN hCV8737990, Fatal/Non-fatal Atherosclerotic CV Disease
[5] = IL1RN hCV8737990, Fatal/Non-fatal MI (def & prob)
[6] = IL1RN hCV8737990, Hosp. for Cardiovascular Disease
[7] = IL1RN hCV8737990, Non-fatal MI (def & prob)
[8] = IL1RN hCV8737990, Total Cardiovascular Disease Events
[9] = IL1RN hCV8737990, Total Coronary Heart Disease Events
[10] = IL6ST hCV16170435, 2 Rare Alleles, n/total 19/37
[11] = IL6ST hCV16170435, Hosp. for Cardiovascular Disease
[12] = IL6ST hCV16170435, Total Cardiovascular Disease Events
[13] = IL9 hCV3275199, All Patients, 0 Rare Alleles, Prava arm

CC[C@H](C)C(=O)O[C@H]1C[C@H](O)C=C2C=C[C@H](C)[C@H](CC[C@@H](O)C[C@@H](O)CC(=O)O)[C@H]21 [pravastatin]
Prava vs. Placebo Odds Ratio, 1 Rare Alleles [1]: 0.60 | Prava vs. Placebo Odds Ratio, 2 Rare Alleles [1]: 0.29 | Non-fatal MI (def & prob), n/total (%) (IL1RN hCV8737990, 0 Rare Alleles, n/total 68/809): (8.4%) | Fatal/Non-fatal MI (def & prob), n/total (%) (IL1RN hCV8737990, 0 Rare Alleles, n/total 76/809): (9.4%) | Fatal CHD/Definite Non-fatal MI, n/total (%) (IL1RN hCV8737990, 0 Rare Alleles, n/total 80/809): (9.9%) | Total Coronary Heart Disease Events, n/total (%) (IL1RN hCV8737990, 0 Rare Alleles, n/total 228/809): (28.2%) | Fatal/Non-fatal Atherosclerotic CV Disease, n/total (%) (IL1RN hCV8737990, 0 Rare Alleles, n/total 260/809): (32.1%) | Hosp. for Cardiovascular Disease, n/total (%) (IL1RN hCV8737990, 0 Rare Alleles, n/total 315/809): (38.9%) | Total Cardiovascular Disease Events, n/total (%) (IL1RN hCV8737990, 0 Rare Alleles, n/total 325/809): (40.2%) | Fatal CHD/Definite Non-fatal MI, n/total (%) (IL1RN hCV8737990, 1 Rare Allele, n/total 44/585): (7.5%) | Non-fatal MI (def & prob), n/total (%) (IL1RN hCV8737990, 1 Rare Allele, n/total 45/585): (7.7%) | Fatal/Non-fatal MI (def & prob), n/total (%) (IL1RN hCV8737990, 1 Rare Allele, n/total 49/585): (8.4%) | Total Coronary Heart Disease Events, n/total (%) (IL1RN hCV8737990, 1 Rare Allele, n/total 167/585): (28.5%) | Fatal/Non-fatal Atherosclerotic CV Disease, n/total (%) (IL1RN hCV8737990, 1 Rare Allele, n/total 193/585): (33.0%) | Hosp. for Cardiovascular Disease, n/total (%) (IL1RN hCV8737990, 1 Rare Allele, n/total 232/585): (39.7%) | Total Cardiovascular Disease Events, n/total (%) (IL1RN hCV8737990, 1 Rare Allele, n/total 239/585): (40.9%) | Fatal CHD/Definite Non-fatal MI, n/total (%) (IL1RN hCV8737990, 2 Rare Alleles, n/total 15/121): (12.4%) | Fatal/Non-fatal MI (def & prob), n/total (%) [2]: (16.5%) | Non-fatal MI (def & prob), n/total (%) [2]: (16.5%) | Total Coronary Heart Disease Events, n/total (%) (IL1RN hCV8737990, 2 Rare Alleles, n/total 45/121): (37.2%) | Fatal/Non-fatal Atherosclerotic CV Disease, n/total (%) (IL1RN hCV8737990, 2 Rare Alleles, n/total 51/121): (42.1%) | Hosp. for Cardiovascular Disease, n/total (%) (IL1RN hCV8737990, 2 Rare Alleles, n/total 60/121): (49.6%) | Total Cardiovascular Disease Events, n/total (%) (IL1RN hCV8737990, 2 Rare Alleles, n/total 61/121): (50.4%) | Prava vs. Placebo Odds Ratio, 0 Rare Alleles [3]: 0.75 | Prava vs. Placebo Odds Ratio, 1 Rare Alleles [3]: 0.52 | Prava vs. Placebo Odds Ratio, 2 Rare Alleles [3]: 1.89 | Prava vs. Placebo Odds Ratio, 0 Rare Alleles [4]: 0.75 | Prava vs. Placebo Odds Ratio, 1 Rare Alleles [4]: 0.66 | Prava vs. Placebo Odds Ratio, 2 Rare Alleles [4]: 1.67 | Prava vs. Placebo Odds Ratio, 0 Rare Alleles [5]: 0.66 | Prava vs. Placebo Odds Ratio, 1 Rare Alleles [5]: 0.51 | Prava vs. Placebo Odds Ratio, 2 Rare Alleles [5]: 1.70 | Prava vs. Placebo Odds Ratio, 0 Rare Alleles [6]: 0.77 | Prava vs. Placebo Odds Ratio, 1 Rare Alleles [6]: 0.64 | Prava vs. Placebo Odds Ratio, 2 Rare Alleles [6]: 1.37 | Prava vs. Placebo Odds Ratio, 0 Rare Alleles [7]: 0.68 | Prava vs. Placebo Odds Ratio, 1 Rare Alleles [7]: 0.52 | Prava vs. Placebo Odds Ratio, 2 Rare Alleles [7]: 1.70 | Prava vs. Placebo Odds Ratio, 0 Rare Alleles [8]: 0.75 | Prava vs. Placebo Odds Ratio, 1 Rare Alleles [8]: 0.65 | Prava vs. Placebo Odds Ratio, 2 Rare Alleles [8]: 1.37 | Prava vs. Placebo Odds Ratio, 0 Rare Alleles [9]: 0.74 | Prava vs. Placebo Odds Ratio, 1 Rare Alleles [9]: 0.67 | Prava vs. Placebo Odds Ratio, 2 Rare Alleles [9]: 1.84 | Hosp. for Cardiovascular Disease, n/total (%) (IL6ST hCV16170435, 0 Rare Alleles, n/total 450/1131): (39.8%) | Total Cardiovascular Disease Events, n/total (%) (IL6ST hCV16170435, 0 Rare Alleles, n/total 465/1131): (41.1%) | Hosp. for Cardiovascular Disease, n/total (%) (IL6ST hCV16170435, 1 Rare Allele, n/total 139/340): (40.9%) | Total Cardiovascular Disease Events, n/total (%) (IL6ST hCV16170435, 1 Rare Allele, n/total 142/340): (41.8%) | Hosp. for Cardiovascular Disease, n/total (%) [10]: (51.4%) | Total Cardiovascular Disease Events, n/total (%) [10]: (51.4%) | Prava vs. Placebo Odds Ratio, 0 Rare Alleles [11]: 0.75 | Prava vs. Placebo Odds Ratio, 1 Rare Alleles [11]: 0.72 | Prava vs. Placebo Odds Ratio, 2 Rare Alleles [11]: 2.49 | Prava vs. Placebo Odds Ratio, 0 Rare Alleles [12]: 0.75 | Prava vs. Placebo Odds Ratio, 1 Rare Alleles [12]: 0.69 | Prava vs. Placebo Odds Ratio, 2 Rare Alleles [12]: 2.49 | Fatal/Nonfatal MI (def & prob), n/total (%) [13]: (10.8%) | MI (Fatal/Nonfatal), n/total (%) [13]: (11.1%)
